Assays:
PSA = experiment: AR mediated PSA expression by quantitative RT-PCR; type: cell-based
Procedure: (§1) Total RNA was isolated from cells using TRIzol reagent (Invitrogen, Carlsbad, Calif.) and then converted to cDNA using High Capacity cDNA Reverse Transcription kit (Applied Biosystems, Foster City, Calif.). The expression levels of SLCO2B1 and GAPDH were measured using a standard TaqMan PCR kit protocol. Experiments were carried out in triplicate for each data point. Real-time PCR primers and probe sets were inventoried products of Applied Biosystem (Assay ID: Hs00200670_m1 and Hs02758991_g1).
(§2) The expression levels of AR and PSA were measured using a standard TaqMan PCR kit protocol (Hs02576345_m1 and Hs00171172_m1) as described in Example 3.

LNCaP cells [1] = experiment: Cell proliferation, WST-1 assay, LNCaP; type: cell-based; conditions: 100 μM DHEAS, wild type LNCaP, androgen-depleted medium
Procedure: Cell proliferation was determined using a WST-1 kit (Roche, Indianapolis, Ind.). […] Tetrazolium salt cell proliferation assay then was carried out at different days after transfection, following the manufacturer's instructions.

AR = AR expression by quantitative RT-PCR; type: cell-based; conditions: LNCaP and LAPC4 cell lines
Procedure: as §1, §2

LNCaP cells [2] = experiment: DHEAS uptake assay in LNCaP cells (mock transfected; transfected cells overall); type: cell-based
Procedure: The sensitivity of the kit is 5 ng/ml. […] Samples were tested in triplicate.

SLCO2B1-312Arg = biological target: T1, SLCO2B1-312Arg (Homo sapiens, UniProt O94956); experiment: DHEAS uptake assay in LNCaP cells transfected with SLCO2B1-312Arg; conditions: read-out: best-fit Km for DHEAS uptake; SLCO2B1-312Arg variant, nonlinear regression
T1 sequence (O94956 1-709 R312Q): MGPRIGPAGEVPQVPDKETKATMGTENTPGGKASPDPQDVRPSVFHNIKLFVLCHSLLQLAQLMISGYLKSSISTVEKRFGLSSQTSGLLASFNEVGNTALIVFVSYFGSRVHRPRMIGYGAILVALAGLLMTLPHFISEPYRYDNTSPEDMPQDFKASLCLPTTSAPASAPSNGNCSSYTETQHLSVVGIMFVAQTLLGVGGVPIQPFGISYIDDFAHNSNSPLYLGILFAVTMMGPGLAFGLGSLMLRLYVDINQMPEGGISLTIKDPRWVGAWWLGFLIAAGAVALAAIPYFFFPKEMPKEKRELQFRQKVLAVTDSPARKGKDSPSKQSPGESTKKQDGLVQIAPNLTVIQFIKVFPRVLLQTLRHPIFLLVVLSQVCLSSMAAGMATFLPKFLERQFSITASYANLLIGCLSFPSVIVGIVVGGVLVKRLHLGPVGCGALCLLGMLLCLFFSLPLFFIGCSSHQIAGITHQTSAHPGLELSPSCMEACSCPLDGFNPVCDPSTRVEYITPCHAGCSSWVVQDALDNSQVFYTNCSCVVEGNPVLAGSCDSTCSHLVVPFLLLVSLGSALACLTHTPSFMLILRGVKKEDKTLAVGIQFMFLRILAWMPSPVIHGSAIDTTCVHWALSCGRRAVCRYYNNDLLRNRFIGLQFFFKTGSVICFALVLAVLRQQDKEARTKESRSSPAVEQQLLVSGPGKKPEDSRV
From the text: (§3) Two full-length SLCO2B1 cDNAs, SLCO2B1-312Gln (having a G at the position 935) and SLCO2B1-312Arg (having an A at position 935), were cloned into the pCMV6-XL4 vector (OriGene Technologies, Rockville, Md.). The SLCO2B1 935G>A nucleotide exchange was introduced into the cDNA using the QuikChange Site-Directed Mutagenesis kit (Stratagene, La Jolla, Calif.). Primers used for the mutagenesis were 5′-[…]-3′ (SEQ ID NO:1) and 5′-[…]-3′ (SEQ ID NO:2) (underlined sequences encode 312Arg).
(§4) LNCaP cells were maintained in RPMI 1640 supplemented with 10% fetal bovine serum (FBS). Twenty-four hours before transfection, 2×10^5 cells were seeded in 12-well plates using Phenol-Red free RPMI 1640 supplemented with 10% charcoal-stripped FBS. LNCaP cells were transiently transfected with pCMV-SLCO2B1-312Gln, pCMV-SLCO2B1-312Arg, or pCMV6-XL4 empty vector using Lipofectamine^2000 according to the manufacturer's instructions.
(§5) The enzyme immunoassay test is based on the competition that occurs between an unlabeled antigen (present in standards, control and samples) and an enzyme-labeled antigen (conjugate) for a limited number of antibody binding sites on the microwell plate. The sensitivity of the kit is 5 ng/ml.

SLCO2B1-312Gln = biological target: T2, SLCO2B1-312Gln (Homo sapiens, UniProt O94956, R312Q); experiment: DHEAS uptake assay in LNCaP cells transfected with SLCO2B1-312Gln; conditions: read-out: best-fit Km for DHEAS uptake; SLCO2B1-312Gln variant, nonlinear regression
T2 sequence (O94956 1-709 R312Q): T1 sequence (O94956 1-709 R312Q)
From the text: as §3, §4, §5

## C[C@]12CC[C@H](OS(=O)(=O)O)CC1=CC[C@@H]1[C@@H]2CC[C@]2(C)C(=O)CC[C@@H]12 [DHEAS, sulfated dehydroepiandrosterone]
PSA; 100 μM DHEAS, LAPC-4 cells
  up-regulation of PSA expression, SLCO2B1-Gln cells compared to SLCO2B1-Arg cells: 1.48 fold
PSA; wild type LNCaP and LAPC-4 cell lines and cells transfected with SLCO2B1
  effect of increasing DHEAS level on PSA expression: up-regulated PSA expression
LNCaP cells [1]
  increase of growth rate: about 1.4 fold
AR
  effect of DHEAS exposure on AR mRNA levels: increased AR mRNA levels
LNCaP cells [2]; 100 μM DHEAS, pCMV6-XL4 vector (mock) transfected LNCaP cells
  uptake of DHEAS: 51.66±7.44 pmol/mg protein
LNCaP cells [2]; 100 μM DHEAS, various transfected LNCaP cells
  incubation time at which DHEAS uptake reached maximum levels: 1 h
LNCaP cells [2]; SLCO2B1 variant transfected LNCaP cells
  DHEAS concentration at which uptake saturation is reached: 60 to 100 µM
SLCO2B1-312Arg
  Km: 13.7 µM
SLCO2B1-312Gln
  Km: 17.7 µM

From patent US10273544B2, “Methods for predicting likelihood of responding to treatment” (Dana-Farber Cancer Institute, Inc., priority 2010, dated 2019)
